Experimental data: ChEMBL document CHEMBL5625222, “Design, synthesis, and biological evaluation of 1,6-naphthyridine-2-one derivatives as novel FGFR4 inhibitors for the treatment of colorectal cancer” (Eur J Med Chem, 2023)
The source made the active and inactive calls. The calls are words filed in the database; no cut-off is given here.

Legend:
[1] = target: Fibroblast growth factor receptor 3 (Homo sapiens, UniProt P22607); test: Inhibition of FGFR3 (unknown origin) kinase activity
HCT-116 [2] = test: Induction of cell cycle arrest in human HCT-116 cells assessed as downregulation of CDC2 expression at 1.5 to 6 uM by immunoblotting analysis; type: functional, cell-based; settings: dose 1.5-6 µM
SW480 [3] = test: Induction of cell cycle arrest in human SW480 cells assessed as downregulation of cyclin B1 expression at 1.5 to 6 uM by immunoblotting analysis; type: functional, cell-based; settings: dose 1.5-6 µM
SW480 [4] = test: Induction of apoptosis in human SW480 cells assessed as downregulation of ratio of Bcl-2/Bax expression at 3 to 12 uM incubated for 48 hrs by Western blotting analysis; type: functional, cell-based; settings: dose 3-12 µM
RKO [5] = test: Induction of apoptosis in human RKO cells assessed as downregulation of ratio of Bcl-2/Bax expression at 3 to 12 uM incubated for 48 hrs by Western blotting analysis; type: functional, cell-based; settings: dose 3-12 µM
HCT-116 [6] = test: Anti-migration activity in human HCT-116 cells assessed as loss of actin cytoskeletal fibers at 3 to 12 uM by immunofluorescence assay; type: functional, cell-based; settings: dose 3-12 µM
HCT-116 [7] = test: Anti-migration activity in human HCT-116 cells assessed as change in N-cad expression at 3 to 12 uM by Western blotting analysis; type: functional, cell-based; settings: dose 3-12 µM
SW480 [8] = test: Anti-migration activity in human SW480 cells assessed as change in FAK expression at 3 to 12 uM by Western blotting analysis; type: functional, cell-based; settings: dose 3-12 µM
RKO [9] = test: Anti-migration activity in human RKO cells assessed as change in N-cad expression at 3 to 12 uM by Western blotting analysis; type: functional, cell-based; settings: dose 3-12 µM
[10] = Toxicity in ICR mouse assessed as change in body weight at 20 mg/kg,po administrated for 1 week; type: organism-based; settings: in vivo, 168 h, time 1 weeks
[11] = Toxicity in ICR mouse assessed as change in liver weight at 60 mg/kg,po administrated for 1 week; type: organism-based; settings: in vivo, 168 h, time 1 weeks
[12] = Toxicity in ICR mouse assessed as change in spleen weight at 20 mg/kg,po administrated for 1 week; type: organism-based; settings: in vivo, 168 h, time 1 weeks
[13] = Toxicity in ICR mouse assessed as change in lung weight at 60 mg/kg,po administrated for 1 week; type: organism-based; settings: in vivo, 168 h, time 1 weeks
[14] = Hepatotoxicity in ICR mouse assessed as change in serum ALT level at 60 mg/kg,po administrated for 1 week; type: toxicity, organism-based; settings: in vivo, 168 h, time 1 weeks
[15] = Toxicity in ICR mouse assessed as histopathological change in kidney at 60 mg/kg,po administrated for 1 week by hematoxylin and eosin staining analysis; type: organism-based; settings: in vivo, 168 h, time 1 weeks
[16] = Toxicity in BALB/c mouse xenografted with human HCT-116 cells assessed as change in liver weight at 10 mg/kg,ip administrated for 2 weeks; type: organism-based; settings: in vivo, 336 h
[17] = Toxicity in BALB/c mouse xenografted with human HCT-116 cells assessed as change in spleen weight at 20 mg/kg,ip administrated for 2 weeks; type: organism-based; settings: in vivo, 336 h
HCT-116 [18] = test: Antitumor activity against human HCT-116 cells xenografted in BALB/c mouse assessed as change in cell morphology at 20 mg/kg,ip administrated for 2 weeks by hematoxylin and eosin staining based analysis; type: functional, organism-based
[19] = Toxicity in BALB/c mouse xenografted with human HCT-116 cells assessed as histopathological change in liver at 20 mg/kg,ip administrated for 2 weeks by hematoxylin and eosin staining based analysis; type: organism-based; settings: in vivo, 336 h
[20] = Toxicity in BALB/c mouse xenografted with human HCT-116 cells assessed as histopathological change in kidney at 20 mg/kg,ip administrated for 2 weeks by hematoxylin and eosin staining based analysis; type: organism-based; settings: in vivo, 336 h
[21] = Toxicity in BALB/c mouse xenografted with human HCT-116 cells assessed as change in serum creatinine level at 20 mg/kg,ip administrated for 2 weeks; type: organism-based; settings: in vivo, 336 h
HCT-116 [22] = test: Antitumor activity against human HCT-116 cells xenografted in BALB/c mouse assessed as upregulation of E-cad expression in tumor at 10 mg/kg,ip administrated for 2 weeks by Western blotting analysis; type: functional, organism-based
HCT-116 [23] = test: Antitumor activity against human HCT-116 cells xenografted in BALB/c mouse assessed as downregulation of FGFR4 signalling pathway in tumor at 20 mg/kg,ip administrated for 2 weeks by Western blotting analysis; type: functional, organism-based
HCT-116 [24] = test: Antitumor activity against human HCT-116 cells xenografted in BALB/c mouse assessed as decrease in CD68 expression in tumor tissue at ip administrated for 2 weeks by immunohistochemical analysis; type: functional, organism-based
HCT-116 [25] = test: Antitumor activity against human HCT-116 cells xenografted in BALB/c mouse assessed as decrease in FAK expression in tumor tissue at ip administrated for 2 weeks by immunohistochemical analysis; type: functional, organism-based
HCT-116 [26] = test: Antitumor activity against human HCT-116 cells xenografted in BALB/c mouse assessed as decrease in E-Cad expression in tumor tissue at ip administrated for 2 weeks by immunohistochemical analysis; type: functional, organism-based

Chain of Fibroblast growth factor receptor 3 (P22607 whole entry): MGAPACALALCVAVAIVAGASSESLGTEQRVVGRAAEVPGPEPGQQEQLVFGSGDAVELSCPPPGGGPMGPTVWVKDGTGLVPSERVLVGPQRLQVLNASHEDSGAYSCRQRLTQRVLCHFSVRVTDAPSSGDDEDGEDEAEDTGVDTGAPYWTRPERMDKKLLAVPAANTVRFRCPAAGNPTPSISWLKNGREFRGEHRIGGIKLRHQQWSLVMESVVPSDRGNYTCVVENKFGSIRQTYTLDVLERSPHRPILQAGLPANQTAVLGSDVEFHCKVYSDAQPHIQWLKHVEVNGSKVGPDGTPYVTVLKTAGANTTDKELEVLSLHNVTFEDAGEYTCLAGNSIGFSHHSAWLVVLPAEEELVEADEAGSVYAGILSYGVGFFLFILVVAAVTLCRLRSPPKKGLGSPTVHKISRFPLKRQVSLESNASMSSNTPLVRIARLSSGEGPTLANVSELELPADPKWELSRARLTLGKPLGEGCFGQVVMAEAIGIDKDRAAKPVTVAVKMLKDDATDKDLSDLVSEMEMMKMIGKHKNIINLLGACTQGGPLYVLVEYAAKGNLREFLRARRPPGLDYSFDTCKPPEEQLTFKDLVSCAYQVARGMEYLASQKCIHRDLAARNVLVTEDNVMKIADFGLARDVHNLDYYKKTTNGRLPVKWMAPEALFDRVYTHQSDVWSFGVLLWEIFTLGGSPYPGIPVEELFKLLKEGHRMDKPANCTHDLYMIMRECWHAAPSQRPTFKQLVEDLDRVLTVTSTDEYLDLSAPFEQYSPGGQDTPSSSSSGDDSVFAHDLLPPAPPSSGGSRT

**Q.** What does the source list for `C=CC(=O)NCCCn1c(=O)c(-c2c(Cl)c(OC)cc(OC)c2Cl)cc2cnc(Nc3c(C)cccc3NC(=O)C=C)cc21`?
**A.** IC50 [1]: 0.225 µM; Activity (HCT-116 [2]): Active; Activity (SW480 [3]): Active; Activity (SW480 [4]): Active; Activity (RKO [5]): Active; Activity (HCT-116 [6]): Active; Activity (HCT-116 [7]): inactive; Activity (SW480 [8]): inactive; Activity (RKO [9]): inactive; Activity [10]: Non-Toxic; Activity [11]: Non-Toxic; Activity [12]: Non-Toxic; Activity [13]: Non-Toxic; Activity [14]: Non-Toxic; Activity [15]: Non-Toxic; Activity [16]: Non-Toxic; Activity [17]: Non-Toxic; Activity (HCT-116 [18]): Active; Activity [19]: Non-Toxic; Activity [20]: Non-Toxic; Activity [21]: Non-Toxic; Activity (HCT-116 [22]): Active; Activity (HCT-116 [23]): Active; Activity (HCT-116 [24]): Dose-Dependent Effect; Activity (HCT-116 [25]): Dose-Dependent Effect; Activity (HCT-116 [26]): Dose-Dependent Effect
